Results published in ChEMBL document CHEMBL4507301 (2021).

Experiments:
[1] = biological target: Mitogen-activated protein kinase kinase kinase kinase 4 (Homo sapiens) (UniProt O95819); conditions: Compound concentration 1000.0 nM
[2] = biological target: D(1B) dopamine receptor (Homo sapiens) (UniProt P21918); conditions: Compound concentration 10.0 uM
[3] = biological target: Sodium-dependent noradrenaline transporter (Homo sapiens) (UniProt P23975); conditions: Compound concentration 10.0 uM
[4] = biological target: 5-hydroxytryptamine receptor 2A (Homo sapiens) (UniProt P28223); conditions: Compound concentration 10.0 uM
[5] = tested on: Receptor-type tyrosine-protein kinase FLT3 (Homo sapiens), P36888 [K663Q]; conditions: Compound concentration 1000.0 nM
[6] = tested on: Mast/stem cell growth factor receptor Kit (Homo sapiens), P10721 [V559D,T670I]; conditions: Compound concentration 1000.0 nM
Mast/stem cell growth factor receptor Kit (Homo sapiens), P10721 [V559D,T670I], sequence (P10721 whole entry V559D/T670I): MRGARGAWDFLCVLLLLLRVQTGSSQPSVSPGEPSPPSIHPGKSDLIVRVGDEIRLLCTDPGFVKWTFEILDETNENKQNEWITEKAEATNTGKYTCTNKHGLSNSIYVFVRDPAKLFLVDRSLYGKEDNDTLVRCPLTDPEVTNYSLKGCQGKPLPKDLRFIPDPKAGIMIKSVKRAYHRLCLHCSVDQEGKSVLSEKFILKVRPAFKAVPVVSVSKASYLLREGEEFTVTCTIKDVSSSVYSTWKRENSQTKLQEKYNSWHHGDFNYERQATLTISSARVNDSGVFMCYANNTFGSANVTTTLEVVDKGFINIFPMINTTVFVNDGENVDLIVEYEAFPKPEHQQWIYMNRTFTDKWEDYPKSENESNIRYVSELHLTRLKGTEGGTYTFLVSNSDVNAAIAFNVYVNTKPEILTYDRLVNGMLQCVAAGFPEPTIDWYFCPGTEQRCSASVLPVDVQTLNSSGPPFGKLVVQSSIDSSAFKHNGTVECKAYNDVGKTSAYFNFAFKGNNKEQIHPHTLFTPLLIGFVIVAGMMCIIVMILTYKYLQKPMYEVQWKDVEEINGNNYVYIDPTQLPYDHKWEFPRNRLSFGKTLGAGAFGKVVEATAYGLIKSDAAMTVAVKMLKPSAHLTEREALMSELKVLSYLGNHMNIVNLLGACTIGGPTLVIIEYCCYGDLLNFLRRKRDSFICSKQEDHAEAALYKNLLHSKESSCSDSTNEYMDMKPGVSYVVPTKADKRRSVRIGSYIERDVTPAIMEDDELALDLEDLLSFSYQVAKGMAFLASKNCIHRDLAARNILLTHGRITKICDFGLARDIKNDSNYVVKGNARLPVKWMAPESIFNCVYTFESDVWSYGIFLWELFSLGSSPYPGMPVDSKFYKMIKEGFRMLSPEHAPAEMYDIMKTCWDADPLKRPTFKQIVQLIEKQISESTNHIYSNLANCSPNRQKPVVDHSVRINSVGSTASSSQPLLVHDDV

[7] = biological target: 5-hydroxytryptamine receptor 2C (Homo sapiens) (UniProt P28335); conditions: Compound concentration 10.0 uM
[8] = biological target: G protein-coupled receptor kinase 4 (Homo sapiens) (UniProt P32298); conditions: Compound concentration 1000.0 nM
[9] = biological target: STE20-like serine/threonine-protein kinase (Homo sapiens) (UniProt Q9H2G2); conditions: Compound concentration 1000.0 nM
[10] = biological target: Serine/threonine-protein kinase 3 (Homo sapiens) (UniProt Q13188); conditions: Compound concentration 1000.0 nM
Serine/threonine-protein kinase 3 (Homo sapiens), sequence (Q13188 whole entry): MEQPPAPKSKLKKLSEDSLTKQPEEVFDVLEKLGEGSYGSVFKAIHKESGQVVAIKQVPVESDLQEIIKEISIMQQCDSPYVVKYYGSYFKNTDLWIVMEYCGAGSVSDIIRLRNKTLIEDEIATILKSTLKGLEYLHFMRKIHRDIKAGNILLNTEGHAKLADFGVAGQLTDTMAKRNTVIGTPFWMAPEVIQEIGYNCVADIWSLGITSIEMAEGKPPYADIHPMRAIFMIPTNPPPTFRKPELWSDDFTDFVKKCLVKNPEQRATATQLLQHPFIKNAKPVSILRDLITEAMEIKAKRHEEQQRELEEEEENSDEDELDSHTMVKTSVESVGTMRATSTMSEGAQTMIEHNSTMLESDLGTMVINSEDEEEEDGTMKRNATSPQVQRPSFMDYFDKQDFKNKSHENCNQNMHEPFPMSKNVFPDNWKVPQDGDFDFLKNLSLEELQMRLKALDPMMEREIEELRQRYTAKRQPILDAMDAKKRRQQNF

[11] = biological target: Tyrosine-protein kinase receptor Tie-1 (Homo sapiens) (UniProt P35590); conditions: Compound concentration 1000.0 nM
[12] = biological target: Dual specificity mitogen-activated protein kinase kinase 6 (Homo sapiens) (UniProt P52564); conditions: Compound concentration 1000.0 nM
[13] = tested on: Mast/stem cell growth factor receptor Kit (Homo sapiens), P10721 [A829P]; conditions: Compound concentration 1000.0 nM
Mast/stem cell growth factor receptor Kit (Homo sapiens), P10721 [A829P], sequence (P10721 whole entry A829P, canonical isoform): as the sequence (P10721 whole entry V559D/T670I) above, with D559V, I670T, A829P counted along it

[14] = biological target: Casein kinase I isoform gamma-2 (Homo sapiens) (UniProt P78368); conditions: Compound concentration 1000.0 nM
[15] = biological target: Receptor-type tyrosine-protein kinase FLT3 (Homo sapiens) (UniProt P36888); conditions: Compound concentration 1000.0 nM
[16] = biological target: Mitogen-activated protein kinase kinase kinase 10 (Homo sapiens) (UniProt Q02779); conditions: Compound concentration 1000.0 nM
[17] = biological target: Mitogen-activated protein kinase kinase kinase 9 (Homo sapiens) (UniProt P80192); conditions: Compound concentration 1000.0 nM
Mitogen-activated protein kinase kinase kinase 9 (Homo sapiens), sequence (P80192 whole entry, looked up): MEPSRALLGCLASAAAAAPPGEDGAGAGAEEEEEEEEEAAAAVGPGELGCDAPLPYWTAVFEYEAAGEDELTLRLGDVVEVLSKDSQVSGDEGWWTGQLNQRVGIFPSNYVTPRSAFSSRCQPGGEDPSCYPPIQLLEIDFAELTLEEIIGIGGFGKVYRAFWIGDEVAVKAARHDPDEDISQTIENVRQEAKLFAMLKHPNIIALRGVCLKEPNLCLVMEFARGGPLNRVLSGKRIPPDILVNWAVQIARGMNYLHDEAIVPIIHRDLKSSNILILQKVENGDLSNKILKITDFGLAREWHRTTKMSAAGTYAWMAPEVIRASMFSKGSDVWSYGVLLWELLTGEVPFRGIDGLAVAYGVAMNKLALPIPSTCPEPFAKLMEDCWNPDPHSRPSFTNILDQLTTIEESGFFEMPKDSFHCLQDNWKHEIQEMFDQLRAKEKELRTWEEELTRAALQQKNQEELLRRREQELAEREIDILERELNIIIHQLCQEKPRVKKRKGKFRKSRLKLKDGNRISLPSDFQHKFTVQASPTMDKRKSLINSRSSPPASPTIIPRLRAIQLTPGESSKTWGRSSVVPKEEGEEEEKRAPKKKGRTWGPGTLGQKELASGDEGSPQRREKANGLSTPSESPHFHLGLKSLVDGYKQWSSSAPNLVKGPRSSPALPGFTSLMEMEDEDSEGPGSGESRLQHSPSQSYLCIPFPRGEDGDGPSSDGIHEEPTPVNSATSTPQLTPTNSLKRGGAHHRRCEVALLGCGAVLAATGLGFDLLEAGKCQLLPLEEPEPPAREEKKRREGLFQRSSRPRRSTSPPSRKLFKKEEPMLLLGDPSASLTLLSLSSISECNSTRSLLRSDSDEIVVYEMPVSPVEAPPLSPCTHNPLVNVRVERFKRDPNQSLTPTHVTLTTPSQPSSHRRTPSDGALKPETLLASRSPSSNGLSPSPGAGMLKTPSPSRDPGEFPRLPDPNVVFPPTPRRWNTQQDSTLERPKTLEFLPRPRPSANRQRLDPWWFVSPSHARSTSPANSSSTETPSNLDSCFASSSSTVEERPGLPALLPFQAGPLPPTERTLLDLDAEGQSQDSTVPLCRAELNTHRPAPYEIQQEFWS

[18] = biological target: Cyclin-dependent kinase 18 (Homo sapiens) (UniProt Q07002); conditions: Compound concentration 1000.0 nM
[19] = tested on: Epidermal growth factor receptor (Homo sapiens), P00533 [UNDEFINED MUTATION]; conditions: Compound concentration 1000.0 nM
Epidermal growth factor receptor (Homo sapiens), P00533 [UNDEFINED MUTATION], sequence (P00533 whole entry, looked up, change not shown): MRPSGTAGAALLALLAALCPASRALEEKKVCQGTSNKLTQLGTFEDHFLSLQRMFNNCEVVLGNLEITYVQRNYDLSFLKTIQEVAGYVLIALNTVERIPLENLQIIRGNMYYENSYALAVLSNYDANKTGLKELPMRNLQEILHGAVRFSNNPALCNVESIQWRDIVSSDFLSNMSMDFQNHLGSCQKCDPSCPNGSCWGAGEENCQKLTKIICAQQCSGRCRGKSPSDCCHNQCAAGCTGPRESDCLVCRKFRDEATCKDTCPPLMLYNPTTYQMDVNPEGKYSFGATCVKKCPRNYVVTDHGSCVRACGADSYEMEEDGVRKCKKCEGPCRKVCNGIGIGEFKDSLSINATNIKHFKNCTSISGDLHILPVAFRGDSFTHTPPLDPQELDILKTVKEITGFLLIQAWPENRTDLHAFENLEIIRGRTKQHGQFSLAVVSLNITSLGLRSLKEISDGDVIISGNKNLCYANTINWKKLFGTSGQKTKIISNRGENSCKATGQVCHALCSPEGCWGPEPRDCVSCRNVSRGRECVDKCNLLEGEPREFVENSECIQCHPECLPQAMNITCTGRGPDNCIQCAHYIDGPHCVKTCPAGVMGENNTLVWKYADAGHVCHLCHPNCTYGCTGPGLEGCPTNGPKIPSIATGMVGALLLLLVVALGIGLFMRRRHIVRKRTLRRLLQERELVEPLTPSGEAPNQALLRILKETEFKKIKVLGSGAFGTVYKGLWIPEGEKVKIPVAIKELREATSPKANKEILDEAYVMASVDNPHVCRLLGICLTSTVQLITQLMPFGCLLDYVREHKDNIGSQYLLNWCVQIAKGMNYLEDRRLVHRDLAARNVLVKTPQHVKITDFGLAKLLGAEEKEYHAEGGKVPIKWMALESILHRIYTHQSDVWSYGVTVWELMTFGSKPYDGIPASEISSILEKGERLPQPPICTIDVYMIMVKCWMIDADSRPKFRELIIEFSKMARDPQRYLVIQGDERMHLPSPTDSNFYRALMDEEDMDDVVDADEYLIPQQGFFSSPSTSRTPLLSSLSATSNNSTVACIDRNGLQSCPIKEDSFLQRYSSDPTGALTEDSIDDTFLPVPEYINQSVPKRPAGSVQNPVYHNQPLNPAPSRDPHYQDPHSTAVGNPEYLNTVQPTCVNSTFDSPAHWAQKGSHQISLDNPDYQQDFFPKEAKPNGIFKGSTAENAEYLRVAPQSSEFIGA

[20] = biological target: Calcium/calmodulin-dependent protein kinase type 1G (Homo sapiens) (UniProt Q96NX5); conditions: Compound concentration 1000.0 nM
[21] = biological target: Muscarinic acetylcholine receptor M1 (Homo sapiens) (UniProt P11229); conditions: Compound concentration 10.0 uM
[22] = tested on: Phosphatidylinositol 4,5-bisphosphate 3-kinase catalytic subunit alpha isoform (Homo sapiens), P42336 [C420R]; conditions: Compound concentration 1000.0 nM
[23] = biological target: Dual specificity tyrosine-phosphorylation-regulated kinase 1B (Homo sapiens) (UniProt Q9Y463); conditions: Compound concentration 1000.0 nM
[24] = biological target: Mitogen-activated protein kinase 10 (Homo sapiens) (UniProt P53779); conditions: Compound concentration 1000.0 nM
[25] = biological target: Ribosomal protein S6 kinase alpha-2 (Homo sapiens) (UniProt Q15349); conditions: Compound concentration 1000.0 nM
[26] = biological target: Casein kinase I isoform gamma-1 (Homo sapiens) (UniProt Q9HCP0); conditions: Compound concentration 1000.0 nM
Casein kinase I isoform gamma-1 (Homo sapiens), sequence (Q9HCP0 whole entry, looked up, canonical isoform): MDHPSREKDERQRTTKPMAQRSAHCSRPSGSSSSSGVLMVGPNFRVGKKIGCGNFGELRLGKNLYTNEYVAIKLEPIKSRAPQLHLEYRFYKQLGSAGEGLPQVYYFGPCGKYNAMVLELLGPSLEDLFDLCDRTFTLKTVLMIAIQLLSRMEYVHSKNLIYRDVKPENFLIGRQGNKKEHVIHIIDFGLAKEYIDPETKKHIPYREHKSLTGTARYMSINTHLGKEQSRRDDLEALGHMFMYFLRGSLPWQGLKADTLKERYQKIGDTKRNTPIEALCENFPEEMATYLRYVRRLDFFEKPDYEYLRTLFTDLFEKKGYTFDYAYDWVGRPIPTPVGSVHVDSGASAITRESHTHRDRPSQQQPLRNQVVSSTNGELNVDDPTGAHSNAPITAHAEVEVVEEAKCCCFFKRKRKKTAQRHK

[27] = biological target: Tyrosine-protein kinase TXK (Homo sapiens) (UniProt P42681); conditions: Compound concentration 1000.0 nM
[28] = biological target: Fibroblast growth factor receptor 1 (Homo sapiens) (UniProt P11362); conditions: Compound concentration 1000.0 nM
Fibroblast growth factor receptor 1 (Homo sapiens), sequence (P11362 22-822 limits assumed): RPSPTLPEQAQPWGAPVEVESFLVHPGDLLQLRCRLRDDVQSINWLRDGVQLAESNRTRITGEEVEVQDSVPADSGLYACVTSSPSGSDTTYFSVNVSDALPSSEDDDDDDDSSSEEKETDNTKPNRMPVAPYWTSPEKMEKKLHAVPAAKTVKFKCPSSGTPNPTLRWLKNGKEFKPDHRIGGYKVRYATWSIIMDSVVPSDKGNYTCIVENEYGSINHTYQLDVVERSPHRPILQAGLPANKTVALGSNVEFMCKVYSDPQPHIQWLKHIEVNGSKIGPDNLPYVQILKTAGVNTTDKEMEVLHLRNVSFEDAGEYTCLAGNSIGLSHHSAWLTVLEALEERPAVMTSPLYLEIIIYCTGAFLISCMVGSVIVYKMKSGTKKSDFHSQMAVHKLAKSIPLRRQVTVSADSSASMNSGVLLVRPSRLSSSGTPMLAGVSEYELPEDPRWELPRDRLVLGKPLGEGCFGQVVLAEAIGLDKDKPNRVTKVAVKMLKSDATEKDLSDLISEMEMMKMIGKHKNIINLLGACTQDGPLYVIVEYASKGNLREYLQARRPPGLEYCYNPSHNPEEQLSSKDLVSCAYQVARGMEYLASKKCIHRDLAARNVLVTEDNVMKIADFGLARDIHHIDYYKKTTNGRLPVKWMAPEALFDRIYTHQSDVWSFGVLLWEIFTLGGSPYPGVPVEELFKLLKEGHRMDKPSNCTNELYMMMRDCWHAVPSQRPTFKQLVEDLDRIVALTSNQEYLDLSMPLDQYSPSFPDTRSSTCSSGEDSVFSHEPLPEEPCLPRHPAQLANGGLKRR

[29] = biological target: Receptor-type tyrosine-protein kinase FLT3 (Homo sapiens) (UniProt P36888); conditions: Compound concentration 1000.0 nM; remark: listed apart in the source
[30] = biological target: GABA-A receptor; anion channel (Rattus norvegicus) (UniProt O09028+P15431+P18506+P18508+P19969+P20236+P23574+P23576+P28471+P28473+P30191+P62813+P63079+P63138+Q91ZM7+Q9ES14); conditions: Compound concentration 10.0 uM
[31] = biological target: TRAF2 and NCK-interacting protein kinase (Homo sapiens) (UniProt Q9UKE5); conditions: Compound concentration 1000.0 nM
[32] = biological target: Cyclin-dependent kinase 4 (Homo sapiens) (UniProt P11802); conditions: Compound concentration 1000.0 nM
[33] = biological target: TGF-beta receptor type-2 (Homo sapiens) (UniProt P37173); conditions: Compound concentration 1000.0 nM
[34] = biological target: Serine/threonine-protein kinase BRSK1 (Homo sapiens) (UniProt Q8TDC3); conditions: Compound concentration 1000.0 nM
[35] = tested on: Tyrosine-protein kinase ABL1 (Homo sapiens), P00519 [F317I]; conditions: Compound concentration 1000.0 nM
[36] = biological target: Serine/threonine-protein kinase TAO3 (Homo sapiens) (UniProt Q9H2K8); conditions: Compound concentration 1000.0 nM
[37] = biological target: Insulin-like growth factor 1 receptor (Homo sapiens) (UniProt P08069); conditions: Compound concentration 1000.0 nM
[38] = tested on: Epidermal growth factor receptor (Homo sapiens), P00533 [UNDEFINED MUTATION]; conditions: Compound concentration 1000.0 nM; remark: listed apart in the source
[39] = biological target: Activin receptor type-2A (Homo sapiens) (UniProt P27037); conditions: Compound concentration 1000.0 nM

## C[C@@H](c1cccc(C#N)c1)n1cc(Cl)cc(C(N)=O)c1=N [(S)-9s]
[1]
  residual activity: 89%
[2]
  inhibition: 16.1%
[3]
  inhibition: -4.73%
[4]
  inhibition: 5.24%
[5]
  residual activity: 92%
[6]
  residual activity: 100%
[7]
  inhibition: 16.8%
[8]
  residual activity: 99%
[9]
  residual activity: 88%
[10]
  residual activity: 96%
[11]
  residual activity: 87%
[12]
  residual activity: 100%
[13]
  residual activity: 100%
[14]
  residual activity: 100%
[15]
  residual activity: 100%
[16]
  residual activity: 77%
[17]
  residual activity: 100%
[18]
  residual activity: 100%
[19]
  residual activity: 100%
[20]
  residual activity: 100%
[21]
  inhibition: 14.9%
[22]
  residual activity: 100%
[23]
  residual activity: 37%
[24]
  residual activity: 100%
[25]
  residual activity: 93%
[26]
  residual activity: 82%
[27]
  residual activity: 68%
[28]
  residual activity: 91%
[29]
  residual activity: 92%
[30]
  inhibition: 8.14%
[31]
  residual activity: 56%
[32]
  residual activity: 99%
[33]
  residual activity: 100%
[34]
  residual activity: 93%
[35]
  residual activity: 100%
[36]
  residual activity: 75%
[37]
  residual activity: 96%
[38]
  residual activity: 100%
[39]
  residual activity: 100%

## C[C@H](c1cccc(C#N)c1)n1cc(Cl)cc(C(N)=O)c1=N [(R)-9s]
[1]
  residual activity: 100%
[2]
  inhibition: 10.7%
[3]
  inhibition: -7.01%
[4]
  inhibition: 12.3%
[5]
  residual activity: 100%
[6]
  residual activity: 100%
[7]
  inhibition: 9.56%
[8]
  residual activity: 100%
[9]
  residual activity: 100%
[10]
  residual activity: 84%
[11]
  residual activity: 100%
[12]
  residual activity: 100%
[13]
  residual activity: 95%
[14]
  residual activity: 99%
[15]
  residual activity: 95%
[16]
  residual activity: 100%
[17]
  residual activity: 95%
[18]
  residual activity: 100%
[19]
  residual activity: 99%
[20]
  residual activity: 100%
[21]
  inhibition: 9.11%
[22]
  residual activity: 100%
[23]
  residual activity: 63%
[24]
  residual activity: 100%
[25]
  residual activity: 97%
[26]
  residual activity: 96%
[27]
  residual activity: 85%
[28]
  residual activity: 95%
[29]
  residual activity: 90%
[30]
  inhibition: 1.07%
[31]
  residual activity: 100%
[32]
  residual activity: 88%
[33]
  residual activity: 100%
[34]
  residual activity: 68%
[35]
  residual activity: 89%
[36]
  residual activity: 67%
[37]
  residual activity: 100%
[38]
  residual activity: 100%
[39]
  residual activity: 100%
